PubChem BioAssay AID1918945 (Molecular Pharmacology Branch, DTP, NCI, 2023)

Tested on: 883617-216-R-J1-PDC complex spheroid viability
Test: Anticancer human tumor 883617-216-R-J1-PDC patient-derived bladder carcinoma cell line growth inhibition
Settings: for IC50: curve of first compound; for viability, T/C: stronger effect = lower value; active = viability on the fitted dose curve at most 10% of control; inactive = the rest
How it was run: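 Complex spheroids of tumor cells with HUVEC and human MSCs, exposed to iadademstat combined with other agents. Each agent tested in half-log steps from near clinical Cmax (else 10 microM top), DMSO ≤0.25%.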
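Note: exposure lasted seven days after three days of spheroid growth.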
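Throughout, for viability, T/C: 100% = DMSO vehicle control luminescence.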

COc1cc(Nc2ncc3c(n2)-c2ccc(Cl)cc2C(c2c(F)cccc2OC)=NC3)ccc1C(=O)O + NC1CCC(NC2CC2c2ccccc2)CC1
322 nM: IC50 (second compound 1 µM)
262 nM: IC50 (second compound 0.316 µM)
inactive: viability, T/C (second compound 0.1 µM, first compound 0.00316 µM) 96.2% | viability, T/C (second compound 0.1 µM, first compound 0.01 µM) 77.3% | viability, T/C (second compound 0.1 µM, first compound 0.0316 µM) 61.3% | viability, T/C (second compound 0.1 µM, first compound 0.1 µM) 53.3% | viability, T/C (second compound 0.1 µM, first compound 0.316 µM) 51.5% | viability, T/C (second compound 0.1 µM, first compound 1 µM) 50.7% | viability, T/C (second compound 0.316 µM, first compound 0.00316 µM) 98.6% | viability, T/C (second compound 0.316 µM, first compound 0.01 µM) 81.1% | viability, T/C (second compound 0.316 µM, first compound 0.0316 µM) 58.7% | viability, T/C (second compound 0.316 µM, first compound 0.1 µM) 53.3% | viability, T/C (second compound 0.316 µM, first compound 0.316 µM) 48.8% | viability, T/C (second compound 0.316 µM, first compound 1 µM) 49.1% | viability, T/C (second compound 1 µM, first compound 0.00316 µM) 94.8% | viability, T/C (second compound 1 µM, first compound 0.01 µM) 75.7% | viability, T/C (second compound 1 µM, first compound 0.0316 µM) 54.6% | viability, T/C (second compound 1 µM, first compound 0.1 µM) 49.4% | viability, T/C (second compound 1 µM, first compound 0.316 µM) 48.8% | viability, T/C (second compound 1 µM, first compound 1 µM) 53% | viability, T/C (second compound 3.16 µM, first compound 0.00316 µM) 96.1% | viability, T/C (second compound 3.16 µM, first compound 0.01 µM) 83.7% | viability, T/C (second compound 3.16 µM, first compound 0.0316 µM) 58.8% | viability, T/C (second compound 3.16 µM, first compound 0.1 µM) 50.8% | viability, T/C (second compound 3.16 µM, first compound 0.316 µM) 55.5% | viability, T/C (second compound 3.16 µM, first compound 1 µM) 56.2% | viability, T/C (second compound 10 µM, first compound 0.00316 µM) 93.5% | viability, T/C (second compound 10 µM, first compound 0.01 µM) 75.5% | viability, T/C (second compound 10 µM, first compound 0.0316 µM) 65.1% | viability, T/C (second compound 10 µM, first compound 0.1 µM) 58.1% | viability, T/C (second compound 10 µM, first compound 0.316 µM) 54.7% | viability, T/C (second compound 10 µM, first compound 1 µM) 51.1%
> 1000 nM: IC50 (second compound 0.1 µM) | IC50 (second compound 3.16 µM) | IC50 (second compound 10 µM)
